Data from ChEMBL document CHEMBL5131452, “Cell-based screening of extracts of natural sources to search for inhibitors of the ubiquitin-proteasome system and identification of proteasome inhibitors from the fungus Remotididymella sp” (Bioorg Med Chem Lett, 2022).
pIC50: −log10 of the molar value. Active and inactive are the calls of the source. No cut-off for these calls is given here.

Key:
[1] = molecular target: T1, Proteasome subunit beta type-9 (Homo sapiens, UniProt P28065); assay: Inhibition of human proteasome subunit beta type-1i in using fluorogenic substrate by UV-spectrometry
T1 sequence (P28065 whole entry): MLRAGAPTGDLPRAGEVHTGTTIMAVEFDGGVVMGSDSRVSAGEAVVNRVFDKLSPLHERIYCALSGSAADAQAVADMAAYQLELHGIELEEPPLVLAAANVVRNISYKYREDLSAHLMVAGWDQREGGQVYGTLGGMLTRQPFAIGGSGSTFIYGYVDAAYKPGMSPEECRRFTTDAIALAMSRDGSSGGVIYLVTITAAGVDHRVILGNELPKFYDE

[2] = system: HeLa; assay: Inhibition of UPS-mediated proteolysis in human HeLa cells expressing ODD-luciferase assessed as increase in luminescence at 2 to 16 uM using D-luciferin as substrate incubated for 4 hrs by luciferase reporter gene assay; assay type: cell-based; conditions: dose 2-16 µM
[3] = molecular target: T2, Proteasome subunit beta type-8 (Homo sapiens, UniProt P28062); assay: Inhibition of human proteasome subunit beta type-5i using fluorogenic substrate by UV-spectrometry
T2 sequence (P28062 whole entry): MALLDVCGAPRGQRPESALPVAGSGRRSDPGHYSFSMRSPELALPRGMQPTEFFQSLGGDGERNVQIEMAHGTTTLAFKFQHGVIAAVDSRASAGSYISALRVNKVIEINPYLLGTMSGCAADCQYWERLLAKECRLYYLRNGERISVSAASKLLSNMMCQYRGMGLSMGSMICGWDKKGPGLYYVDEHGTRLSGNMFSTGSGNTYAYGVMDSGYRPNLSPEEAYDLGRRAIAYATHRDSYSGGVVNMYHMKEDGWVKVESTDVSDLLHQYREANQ

[4] = molecular target: T3, Proteasome Macropain subunit MB1 (Homo sapiens, UniProt P28074); assay: Inhibition of human constitutive proteasome subunit beta type-5 in human erythrocytes using fluorogenic substrate by UV-spectrometry; assay type: cell-based, Erythrocyte
T3 sequence (P28074 whole entry): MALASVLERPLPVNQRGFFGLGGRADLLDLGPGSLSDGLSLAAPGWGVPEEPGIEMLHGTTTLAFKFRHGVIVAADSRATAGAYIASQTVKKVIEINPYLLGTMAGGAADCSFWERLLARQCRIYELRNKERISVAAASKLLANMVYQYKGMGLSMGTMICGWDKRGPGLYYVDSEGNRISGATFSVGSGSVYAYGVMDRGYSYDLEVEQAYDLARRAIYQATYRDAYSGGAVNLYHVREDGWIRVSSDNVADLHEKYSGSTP

[5] = molecular target: T4, Proteasome subunit beta type-10 (Homo sapiens, UniProt P40306); assay: Inhibition of human proteasome subunit beta type-2i using fluorogenic substrate by UV-spectrometry
T4 sequence (P40306 whole entry): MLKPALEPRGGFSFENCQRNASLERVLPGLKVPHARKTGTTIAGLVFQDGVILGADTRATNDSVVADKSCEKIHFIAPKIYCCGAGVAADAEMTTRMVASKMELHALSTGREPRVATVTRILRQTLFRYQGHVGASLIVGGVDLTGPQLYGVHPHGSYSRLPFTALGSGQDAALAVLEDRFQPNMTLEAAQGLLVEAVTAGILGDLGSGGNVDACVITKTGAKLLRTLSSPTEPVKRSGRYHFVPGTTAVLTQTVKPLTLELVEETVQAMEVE

[6] = system: HeLa; assay: Cytotoxicity against human HeLa cells expressing ODD-luciferase at 16 uM by MTT assay; assay type: toxicity, cell-based
[7] = system: HeLa; assay: Inhibition of UPS-mediated proteolysis in human HeLa cells assessed as increase in ubiquitinated proteins at 2 to 24 uM incubated for 24 hrs by western blot analysis; assay type: cell-based; conditions: dose 2-24 µM
[8] = system: HeLa; assay: Inhibition of UPS-mediated proteolysis in human HeLa cells expressing ODD-luciferase assessed as fold change in increase in luminescence at 2 uM using D-luciferin as substrate incubated for 4 hrs by luciferase reporter gene assay; assay type: cell-based

| pIC50 [1] | pIC50 [3] | pIC50 [4] | pIC50 [5] | Structure (SMILES) | inhibition [2] | Activity [6] | inhibition [7] | fold change (FC) [8] |
| --- | --- | --- | --- | --- | --- | --- | --- | --- |
| < 4.30 | 4.30 | 4.34 | 4.52 | CCC(C)/C=C(\C)C1=Cc2cc3c(c(O)c2CO1)C(=O)C(O)(CC(C)=O)C(OC)=C3 (centres undefined) | Active |  |  |  |
| < 4.30 | 4.70 | 4.66 | 4.48 | CCC(C)/C=C(\C)c1cc2c(cn1)C(=O)C1=C(N)C(=O)C(OC)=CC1=C2 (centres undefined) | Active | Toxic |  |  |
|  |  |  |  | CCC(C)/C=C(\C)C1=Cc2cc3c(c(O)c2CO1)C(=O)C(=O)C(OC)=C3 (centres undefined) | Active | Toxic | Active | 2.5 |
| < 4.30 | 4.40 | 4.80 | 4.37 | CCC(C)/C=C(\C)c1cc2c(cn1)C(=O)c1c(cc(OC)c(O)c1O)C2=O (centres undefined) |  |  |  |  |
